Biological target: T1, Human Polθ polymerase domain (aa1820-2590) (Homo sapiens, UniProt O75417)
T1 construct: Human Polθ polymerase domain (aa1820-2590) was expressed in E. coli; made in house; host or cells: E. coli
T1 sequence (O75417 1820-2590): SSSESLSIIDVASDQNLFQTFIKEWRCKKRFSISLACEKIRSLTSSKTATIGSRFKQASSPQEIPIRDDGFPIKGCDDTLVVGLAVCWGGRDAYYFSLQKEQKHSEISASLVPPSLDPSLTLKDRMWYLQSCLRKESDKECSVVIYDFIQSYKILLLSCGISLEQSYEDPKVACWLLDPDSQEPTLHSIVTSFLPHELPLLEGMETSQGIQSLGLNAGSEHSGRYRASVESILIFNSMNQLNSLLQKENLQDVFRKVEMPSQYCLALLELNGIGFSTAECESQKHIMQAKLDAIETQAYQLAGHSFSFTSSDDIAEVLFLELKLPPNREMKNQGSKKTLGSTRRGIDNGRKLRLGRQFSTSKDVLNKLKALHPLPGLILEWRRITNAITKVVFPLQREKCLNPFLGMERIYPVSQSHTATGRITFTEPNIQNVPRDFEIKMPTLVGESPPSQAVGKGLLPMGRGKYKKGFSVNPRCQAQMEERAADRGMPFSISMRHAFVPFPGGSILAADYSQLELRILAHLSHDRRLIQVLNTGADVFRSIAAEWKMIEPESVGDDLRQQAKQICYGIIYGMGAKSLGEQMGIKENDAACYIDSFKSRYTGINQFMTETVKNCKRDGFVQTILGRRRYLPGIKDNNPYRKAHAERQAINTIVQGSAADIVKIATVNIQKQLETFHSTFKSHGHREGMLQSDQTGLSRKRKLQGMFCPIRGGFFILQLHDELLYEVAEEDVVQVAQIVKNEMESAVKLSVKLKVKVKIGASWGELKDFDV
Assay: Polθ Polymerase Domain Kinact/KI Assay (PicoGreen)
Type: biochemical
Settings: 0.8 nM Polθ, 100 nM DNA substrate, kobs vs [I] fit for 2-step covalent inhibitor
Method in brief: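 Covalent inhibitors were tested against E. coli-expressed enzyme (0.8 nM final) with 100 nM annealed DNA substrate and […] in Tris pH 7.5 buffer, 1% DMSO. Reactions were EDTA-quenched over a 0–60 min time course and product DNA detected by PicoGreen fluorescence.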

| Structure (SMILES) | Kinact/Kl [M⁻¹ s⁻¹] |
| --- | --- |
| C=C(CN(C)C)C(=O)N[C@H]1CCc2nc(CN3C[C@H]4CC(=O)N(c5cc(C(F)(F)F)cc(C)n5)[C@@H]4C(=O)N(C)c4cccc(C)c43)cn2C1 (racemic) [Example 329b, N-((S/R)-2-(((3aR, 11aS)-6,10-dimethyl-1-(6-methyl-4-(tri-fluoromethyl)pyridin-2-yl)-2,11-dioxo-1,2,3,3a,4,10,11,11a-octahydro-5H-benzo [b]pyrrolo[2,3-f][1,4]diazocin-5-yl)meth-yl)-5,6,7,8-tetrahydro-imidazo[1,2-a]pyr-idin-6-yl)-2-((dimeth-ylamino)methyl)-acrylamide] | 5.73e+06 |
| C=C(CN(C)C)C(=O)N[C@H]1CCn2cc(CN3C[C@H]4CC(=O)N(c5cc(C(F)(F)F)cc(C)n5)[C@@H]4C(=O)N(C)c4cccc(C)c43)nc2C1 (racemic) [Example 330a, N-((S/R)-2-(((3aR, 11aS)-6,10-dimethyl-1-(6-methyl-4-(trifluoromethyl)-pyridin-2-yl)-2,11-dioxo-1,2,3,3a,4,10, 11,11a-octahydro-5H-benzo[b]pyrrolo [2,3-f][1,4]diazocin-5-yl)methyl)-5,6,7,8-tetrahydroimidazo [1,2-a]pyridin-7-yl)-2-((dimethylamino)-methyl)acrylamide] | 2.74e+06 |
| C=C(CN(C)C)C(=O)N[C@@H]1CCn2cc(CN3C[C@H]4CC(=O)N(c5cc(C(F)(F)F)cc(C)n5)[C@@H]4C(=O)N(C)c4cccc(C)c43)nc2C1 (racemic) [Example 330b, N-((R/S)-2-(((3aR, 11aS)-6,10-dimethyl-1-(6-methyl-4-(trifluoromethyl)pyr-idin-2-yl)-2,11-dioxo-1,2,3,3a,4,10,11,11a-octahydro-5H-benzo [b]pyrrolo[2,3-f][1,4]diazocin-5-yl)meth-yl)-5,6,7,8-tetrahydro-imidazo[1,2-a]pyridin-7-yl)-2-((dimethyl-amino)methyl)acryl-amide] | 1.15e+06 |
| C=CC(=O)N1CC(O[C@H]2CN(CCN3C[C@H]4CC(=O)N(c5cc(C(F)(F)F)cc(C)n5)[C@@H]4C(=O)N(C)c4cccc(F)c43)C[C@@H]2O)C1 (relative stereo) [Example 11, (3aR,11aS)-5-(2-((rel-trans)-3-((1-acryloylazetidin-3-yl)oxy)-4-hydroxypyrrolidin-1-yl)ethyl)-6-fluoro-10-methyl-1-(6-methyl-4-(trifluoromethyl)pyridin-2-yl)-1,3a,4,5,10,11a-hexahydro-2H-benzo[b]pyrrolo[2,3-f][1,4]diazocine-2,11(3H)-dione] | 400000 |
| C=CC(=O)N1C[C@H]2CCN(CCN3C[C@H]4CC(=O)N(c5cc(C(F)(F)F)cc(C)n5)[C@@H]4C(=O)N(C)c4cccc(F)c43)C[C@H]2C1 (relative stereo) [Example 25a, (3aR,11aS)-5-(2-((3aS/R,7aS/R)-2-acryloyloctahydro-5H-pyrrolo[3,4-c]pyridin-5-yl)ethyl)-6-fluoro-10-methyl-1-(6-methyl-4-(trifluoromethyl)pyridin-2-yl)-1,3a,4,5,10,11a-hexahydro-2H-benzo[b]pyrrolo[2,3-f][1,4]diazocine-2, 11(3H)-dione] | 200000 |
| C=CC(=O)N1C[C@H]2CN(CCN3C[C@H]4CC(=O)N(c5cc(C(F)(F)F)cc(C)n5)[C@@H]4C(=O)N(C)c4cccc(F)c43)CCN2[C@H](C)C1 (relative stereo) [Example 64a, (3aR,11aS)-5-(2-((6R/S,9aR/S)-8-acryloyl-6-methyloctahydro-2H-pyrazino[1,2-a]pyrazin-2-yl)ethyl)-6-fluoro-10-methyl-1-(6-methyl-4-(trifluoromethyl)pyridin-2-yl)-1,3a,4,5,10,11a-hexahydro-2H-benzo[b]pyrrolo[2,3-f][1,4]diazocine-2,11(3H)-dione] | 2.06e+06 |
| C=CC(=O)N1CC[C@@H](O)[C@H](N(C)CCN2C[C@H]3CC(=O)N(c4cc(C(F)(F)F)cc(C)n4)[C@@H]3C(=O)N(C)c3cccc(Cl)c32)C1 (relative stereo) [Example 113, (3aR,11aS)-5-(2-(((rel-trans)-1-acryloyl-4-hydroxypiperidin-3-yl)(methyl)amino)ethyl)-6-chloro-10-methyl-1-(6-methyl-4-(trifluoromethyl)pyridin-2-yl)-1,3a,4,5,10,11a-hexahydro-2H-benzo[b]pyrrolo[2,3-f][1,4]diazocine-2,11(3H)-dione] | 1.72e+06 |
| C=CC(=O)N1CC2(C1)C(C)N(CCN1C[C@H]3CC(=O)N(c4cc(C(F)(F)F)cc(C)n4)[C@@H]3C(=O)N(C)c3cccc(F)c31)C[C@H]1COCCN12 (single isomer, unassigned) [Example 7] | 410000 |
| C=CC(=O)N1CC2(C1)[C@H](C)N(CCN1C[C@H]3CC(=O)N(c4cc(C(F)(F)F)cc(C)n4)[C@@H]3C(=O)N(C)c3cccc(F)c31)C[C@H]1COCCN12 (single isomer, unassigned) [Example 8] | 2e+06 |
| C=CC(=O)N1C[C@@H]2CN(CCN3C[C@H]4CC(=O)N(c5cc(C(F)(F)F)cc(C)n5)[C@@H]4C(=O)N(C)c4cccc(F)c43)CCN2C[C@@H]1C (single isomer, unassigned) [Example 9] | 600000 |
| C=CC(=O)N1CC2CN(CCN3C[C@H]4CC(=O)N(c5cc(C(F)(F)F)cc(C)n5)[C@@H]4C(=O)N(C)c4cccc(F)c43)CCN2C[C@@H]1C (single isomer, unassigned) [Example 10] | 210000 |
| C=CC(=O)N1CCC12CCN(CCN1C[C@H]3CC(=O)N(c4cc(C(F)(F)F)cc(C)n4)[C@@H]3C(=O)N(C)c3cccc(F)c31)C2 (single isomer, unassigned) [Example 21b] | 140000 |
| C=CC(=O)N1CC(N2CCO[C@H]3CN(CCN4C[C@H]5CC(=O)N(c6cc(C(F)(F)F)cc(C)n6)[C@@H]5C(=O)N(C)c5cccc(F)c54)C[C@@H]32)C1 (single isomer, unassigned) [Example 22a] | 170000 |
| C=CC(=O)N1CC(N2CCO[C@@H]3CN(CCN4C[C@H]5CC(=O)N(c6cc(C(F)(F)F)cc(C)n6)[C@@H]5C(=O)N(C)c5cccc(F)c54)C[C@H]32)C1 (single isomer, unassigned) [Example 22b] | 460000 |
| C=CC(=O)N1CCN2CCN(CCN3C[C@H]4CC(=O)N(c5cc(C(F)(F)F)cc(C)n5)[C@@H]4C(=O)N(C)c4cccc(F)c43)CC2C1 (single isomer, unassigned) [Example 23b] | 540000 |
| C=CC(=O)N1CC2(CN(CCN3C[C@H]4CC(=O)N(c5cc(C(F)(F)F)cc(C)n5)[C@@H]4C(=O)N(C)c4cccc(F)c43)CC3COCCN32)C1 (single isomer, unassigned) [Example 24a] | 1.63e+06 |
| C=CC(=O)N1C[C@H]2CN(CCN3C[C@H]4CC(=O)N(c5cc(C(F)(F)F)cc(C)n5)[C@@H]4C(=O)N(C)c4cccc(F)c43)CC[C@H]2C1 (single isomer, unassigned) [Example 25b] | 250000 |
| C=CC(=O)N1CC2(CN(CCN3C[C@H]4CC(=O)N(c5cc(C(F)(F)F)cc(C)n5)[C@@H]4C(=O)N(C)c4cccc(Cl)c43)CC3COCCN32)C1 (single isomer, unassigned) [Example 26a] | 690000 |
| C=CC(=O)N1CC2(C1)NCCN(CCN1C[C@H]3CC(=O)N(c4cc(C(F)(F)F)cc(C)n4)[C@@H]3C(=O)N(C)c3cccc(F)c31)C2C (single isomer, unassigned) [Example 34b] | 1.69e+06 |
| C=CC(=O)N1C[C@H]2CN(CCN3C[C@H]4CC(=O)N(c5cc(C(F)(F)F)cc(C)n5)[C@@H]4C(=O)N(C)c4cccc(F)c43)CCN2C(=O)[C@H]1C (single isomer, unassigned) [Example 58] | 500000 |
| C=CC(=O)N1C[C@@H]2CN(CCN3C[C@H]4CC(=O)N(c5cc(C(F)(F)F)cc(C)n5)[C@@H]4C(=O)N(C)c4cccc(F)c43)CCN2C(=O)[C@@H]1C (single isomer, unassigned) [Example 59] | 1.08e+06 |
| C=CC(=O)N1C[C@@H]2CN(CCN3C[C@H]4CC(=O)N(c5cc(C(F)(F)F)cc(C)n5)[C@@H]4C(=O)N(C)c4cccc(F)c43)CCN2C(=O)[C@H]1C (single isomer, unassigned) [Example 60] | 300000 |
| C=CC(=O)N1C[C@H]2CN(CCN3C[C@H]4CC(=O)N(c5cc(C(F)(F)F)cc(C)n5)[C@@H]4C(=O)N(C)c4cccc(F)c43)CCN2C(=O)[C@@H]1C (single isomer, unassigned) [Example 61] | 500000 |
| C=CC(=O)N1CC(N(C)CC(O)CN2C[C@H]3CC(=O)N(c4cc(C(F)(F)F)cc(C)n4)[C@@H]3C(=O)N(C)c3cccc(Cl)c32)C1 (single isomer, unassigned) [Example 69] | 1.09e+06 |
